Experimental data as given in paper PMC3032781, “DNA Polymerase β as a Novel Target for Chemotherapeutic Intervention of Colorectal Cancer” (PLoS ONE, 2011).
pIC50: −log10 of the molar value.

Target: T1, Pol-β (Homo sapiens, UniProt P06746)
T1 construct: gene POLB; purified protein
Assay: strand-displacement synthesis on […]-labelled 63-mer F-DNA, denaturing gel
Format: biochemical
Settings: pH 7.5, 30 mM KCl, 8 mM MgCl2, 37 °C, 30 min; 5 nM Pol-β, 2 nM APE1 (pre-incision), 2.5 nM DNA

pIC50: 5.28
Substance: [5-(4-amino-6-iodo-2-oxo-5,6-dihydropyrimidin-1-yl)-3-hydroxy-oxolan-2-yl] methoxyphosphonic acid [NSC-124854]
